Reference: ChEMBL document CHEMBL1201862, “PubChem BioAssay data set” (2004)
Calls of active or inactive are those of the source. Cut-off read from the data, not from the text of the source, for most assays here: actives have a measured EC50 and inactives only a lower limit.

Assays:
[1] = biological target: T1, Protein skinhead-1 (Caenorhabditis elegans, UniProt P34707); format: functional
T1 sequence (P34707 whole entry): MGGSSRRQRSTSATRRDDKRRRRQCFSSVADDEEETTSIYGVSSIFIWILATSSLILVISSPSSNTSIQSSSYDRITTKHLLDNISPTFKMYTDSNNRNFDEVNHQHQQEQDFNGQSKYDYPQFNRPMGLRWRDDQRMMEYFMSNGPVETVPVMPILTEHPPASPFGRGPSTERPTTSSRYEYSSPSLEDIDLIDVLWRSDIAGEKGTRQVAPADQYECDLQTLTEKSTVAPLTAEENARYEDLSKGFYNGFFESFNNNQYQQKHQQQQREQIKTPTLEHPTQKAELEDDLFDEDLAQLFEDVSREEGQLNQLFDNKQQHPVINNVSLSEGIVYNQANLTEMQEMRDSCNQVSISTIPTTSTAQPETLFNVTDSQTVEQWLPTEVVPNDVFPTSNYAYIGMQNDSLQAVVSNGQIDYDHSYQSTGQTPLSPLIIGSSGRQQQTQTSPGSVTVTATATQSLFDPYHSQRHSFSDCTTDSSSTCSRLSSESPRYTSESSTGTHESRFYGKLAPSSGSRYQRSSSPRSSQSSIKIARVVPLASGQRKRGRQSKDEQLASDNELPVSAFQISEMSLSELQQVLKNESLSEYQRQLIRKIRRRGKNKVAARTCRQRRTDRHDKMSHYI

[2] = Luminescence Cell-Based Dose Confirmation HTS to Identify Activators of 5'UTR Stem-Loop Driven Alpha-Synuclein mRNA Translation in H4 Neuroglioblastoma Cells. [Related pubchem assays: 1829 (Project Summary), 1814 (Primary HTS)]; format: functional
[3] = test system: H4; assay: Luminescence Cell-Based Dose Response HTS to Identify Activators of 5'UTR Stem-Loop Driven Prion Protein mRNA Translation in H4 Neuroglioblastoma Cells. [Related pubchem assays: 1829 (Project Summary), 1814 (Primary HTS)]; format: functional; details: Homo sapiens
[4] = Luminescence Cell-Based Dose Response HTS to Identify Activators of Luciferase Translation or Activity in H4 […] Cells. [Related pubchem assays: 1829 (Project Summary), 1814 (Primary HTS)]; format: functional
[5] = test system: HT-1080; assay: HT1080 cell viability loss – fluorescence readout (AID 620); format: functional, cell-based; details: Homo sapiens
[6] = biological target: Luciferin 4-monooxygenase (Photinus pyralis, UniProt P08659); assay: Counter Screen for Luciferase-based Assay Positives. [Related pubchem assays: 620, 618, 411 ]
Chain of Luciferin 4-monooxygenase (P08659 whole entry): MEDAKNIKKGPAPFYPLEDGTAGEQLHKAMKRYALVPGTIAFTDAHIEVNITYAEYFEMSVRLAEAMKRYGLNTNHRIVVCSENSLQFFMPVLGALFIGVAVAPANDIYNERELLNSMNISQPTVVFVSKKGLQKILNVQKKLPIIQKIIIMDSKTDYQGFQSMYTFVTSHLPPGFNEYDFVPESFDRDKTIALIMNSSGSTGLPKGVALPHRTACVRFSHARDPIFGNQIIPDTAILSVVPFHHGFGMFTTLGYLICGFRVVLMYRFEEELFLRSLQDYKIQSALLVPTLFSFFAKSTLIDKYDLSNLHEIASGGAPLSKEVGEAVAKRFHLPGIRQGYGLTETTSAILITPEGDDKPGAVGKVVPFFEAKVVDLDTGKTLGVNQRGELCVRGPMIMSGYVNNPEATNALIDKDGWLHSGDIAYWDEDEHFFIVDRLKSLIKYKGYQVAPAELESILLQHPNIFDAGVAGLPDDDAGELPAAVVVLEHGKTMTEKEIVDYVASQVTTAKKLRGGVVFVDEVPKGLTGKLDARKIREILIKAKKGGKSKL

[7] = test system: HEK293; assay: cells; format: functional, cell-based; details: Homo sapiens
[8] = test system: HEK293; assay: NOD2 signaling inhibitors in MDP-stimulated cells, cell-based, uHTS, luminescence (AID 2001); format: functional; details: Homo sapiens
[9] = test system: HEK293; assay: EBV LMP1 TES2 canonical NF-kB signalling blockers – cell-based, HEK293, luciferase, cherry-pick, dose response (AID 588343); format: functional, Homo sapiens; details: hek293
[10] = test system: HEK293; assay: cells; format: functional, cell-based; details: Homo sapiens; remark: listed apart in the source
[11] = test system: HEK293; assay: inhibition of NOD1-driven NF-kB reporter – cell-based, luminescence, uHTS, primary screen (AID 1578); format: functional; details: Homo sapiens
[12] = HEK-293T cell viability reduction – luminescence, B-cell screen hits, cytotoxicity control for BCR NF-kB inhibitor project, dose response (AID 489021); format: functional, cell-based;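 note: HEK-293T cells carrying an NF-kB luciferase reporter; cells exposed to compound for about 14 hours before viability readout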
[13] = Trypanosoma cruzi growth suppression in host cells – NIH3T3 host cells, beta-gal luminescence, confirmation (AID 2044); format: functional, cell-based;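 note: intracellular parasites grown in NIH/3T3 mouse fibroblasts as host cells; luminescent beta-galactosidase reporter signal from transgenic T. cruzi replicating inside host cells; inhibitors lower the luminescence signal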
[14] = NIH3T3 cell viability loss – ATP luminescence, mouse fibroblasts, counter-screen, dose response (AID 2010); format: functional, cell-based;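 note: cells exposed to compound for about 90 hours before reading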
[15] = luciferase reporter signal suppression in cells – H4 neuroglioma cells, luminescence, dose response (AID 1990); format: functional, cell-based
[16] = biological target: T2, Aminopeptidase N (Plasmodium falciparum FcB1/Columbia, UniProt O96935); assay: malaria alanyl aminopeptidase activity blockers – biochemical, fluorogenic H-Leu-NHMec substrate, 1536-well (AID 1445); design: species or system Plasmodium falciparum 3D7, 3D7
T2 sequence (O96935 whole entry): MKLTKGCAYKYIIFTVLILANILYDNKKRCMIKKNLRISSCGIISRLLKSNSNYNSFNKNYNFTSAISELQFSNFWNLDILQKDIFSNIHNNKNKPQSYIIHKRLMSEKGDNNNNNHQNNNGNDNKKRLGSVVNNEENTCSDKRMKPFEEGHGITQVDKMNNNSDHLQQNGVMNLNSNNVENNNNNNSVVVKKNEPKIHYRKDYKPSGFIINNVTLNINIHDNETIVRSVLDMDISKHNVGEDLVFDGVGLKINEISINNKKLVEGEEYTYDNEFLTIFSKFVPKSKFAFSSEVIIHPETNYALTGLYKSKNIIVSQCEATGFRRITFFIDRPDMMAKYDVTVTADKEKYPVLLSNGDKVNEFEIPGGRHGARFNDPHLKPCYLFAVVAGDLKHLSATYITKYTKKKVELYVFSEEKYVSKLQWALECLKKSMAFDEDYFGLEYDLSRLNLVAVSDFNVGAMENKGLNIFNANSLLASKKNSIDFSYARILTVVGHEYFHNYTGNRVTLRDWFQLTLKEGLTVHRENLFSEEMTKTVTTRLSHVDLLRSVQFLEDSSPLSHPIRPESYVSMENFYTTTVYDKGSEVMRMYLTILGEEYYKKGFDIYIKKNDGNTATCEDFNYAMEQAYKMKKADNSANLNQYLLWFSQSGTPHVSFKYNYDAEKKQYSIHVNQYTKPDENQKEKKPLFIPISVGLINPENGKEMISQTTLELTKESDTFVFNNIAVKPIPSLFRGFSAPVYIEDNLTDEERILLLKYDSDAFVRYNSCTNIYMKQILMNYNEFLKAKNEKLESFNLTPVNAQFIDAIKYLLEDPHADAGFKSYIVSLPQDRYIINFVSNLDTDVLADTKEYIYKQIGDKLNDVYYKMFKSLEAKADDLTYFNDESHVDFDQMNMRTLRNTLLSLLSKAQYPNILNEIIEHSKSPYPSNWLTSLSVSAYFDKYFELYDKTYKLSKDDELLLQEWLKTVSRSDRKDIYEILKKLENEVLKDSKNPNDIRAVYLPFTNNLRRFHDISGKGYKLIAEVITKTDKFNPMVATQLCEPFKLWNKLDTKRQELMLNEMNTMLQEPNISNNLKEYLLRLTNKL

[17] = biological target: T3, Histone-lysine N-methyltransferase NSD2 (Homo sapiens, UniProt O96028); format: biochemical
T3 sequence (O96028 whole entry): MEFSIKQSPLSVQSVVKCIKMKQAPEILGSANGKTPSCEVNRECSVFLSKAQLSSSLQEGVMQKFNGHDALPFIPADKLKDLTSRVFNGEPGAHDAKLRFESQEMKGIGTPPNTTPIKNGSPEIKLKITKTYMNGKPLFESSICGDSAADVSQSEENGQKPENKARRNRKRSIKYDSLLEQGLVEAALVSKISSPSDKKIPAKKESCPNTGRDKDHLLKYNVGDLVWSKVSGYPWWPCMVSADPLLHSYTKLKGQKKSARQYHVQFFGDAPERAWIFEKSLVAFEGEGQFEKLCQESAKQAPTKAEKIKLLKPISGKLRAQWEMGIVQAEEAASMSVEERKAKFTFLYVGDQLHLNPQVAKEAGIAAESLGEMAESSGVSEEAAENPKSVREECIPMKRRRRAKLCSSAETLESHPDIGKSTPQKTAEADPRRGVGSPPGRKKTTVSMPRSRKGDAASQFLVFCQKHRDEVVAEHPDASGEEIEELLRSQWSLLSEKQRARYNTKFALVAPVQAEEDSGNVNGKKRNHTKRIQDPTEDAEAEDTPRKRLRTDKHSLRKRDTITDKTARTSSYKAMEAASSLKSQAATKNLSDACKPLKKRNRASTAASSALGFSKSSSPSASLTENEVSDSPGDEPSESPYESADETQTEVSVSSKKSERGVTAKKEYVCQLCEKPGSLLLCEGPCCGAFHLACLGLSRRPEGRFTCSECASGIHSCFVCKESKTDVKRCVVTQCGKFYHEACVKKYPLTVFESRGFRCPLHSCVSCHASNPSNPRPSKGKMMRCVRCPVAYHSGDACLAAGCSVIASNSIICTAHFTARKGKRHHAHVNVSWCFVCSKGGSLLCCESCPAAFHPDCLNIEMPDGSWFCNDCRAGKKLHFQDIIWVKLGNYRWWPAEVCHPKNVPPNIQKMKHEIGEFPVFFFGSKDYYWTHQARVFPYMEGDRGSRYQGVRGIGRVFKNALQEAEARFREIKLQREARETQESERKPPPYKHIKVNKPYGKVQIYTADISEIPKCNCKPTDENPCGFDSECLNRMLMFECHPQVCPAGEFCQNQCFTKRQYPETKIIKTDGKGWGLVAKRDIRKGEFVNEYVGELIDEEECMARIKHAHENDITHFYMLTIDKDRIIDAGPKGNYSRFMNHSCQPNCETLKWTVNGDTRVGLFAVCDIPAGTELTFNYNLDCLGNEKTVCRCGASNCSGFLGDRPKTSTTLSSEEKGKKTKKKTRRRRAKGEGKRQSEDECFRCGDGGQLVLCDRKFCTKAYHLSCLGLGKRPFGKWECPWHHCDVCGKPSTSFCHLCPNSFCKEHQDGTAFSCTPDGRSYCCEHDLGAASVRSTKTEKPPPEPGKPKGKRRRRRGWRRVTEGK

## Cc1cccc(-n2nc3c(c2NC(=O)C2CC2)CS(=O)(=O)C3)c1C
[1]
  IC50: > 100 µM (inactive)
[2]
  EC50: > 120 µM (not active)
[3]
  EC50: > 120 µM (not active)
[4]
  EC50: > 120 µM (not active)

## CCOc1ccc(-c2nnc(-c3ccco3)o2)cc1
[1]
  IC50: 28.9 µM (active)
[5]
  EC50: > 50 µM (not active)
[6]
  EC50: < 0.2 µM (active)

## CCN1CCN(Cc2ccc(NC(=O)c3ccc(C)c(NC(=O)c4ccno4)c3)cc2C(F)(F)F)CC1
[7]
  IC50: > 20 µM (inactive)
[8]
  IC50: 11.9 µM (inactive)
[9]
  AC50: 0.0692 µM (active)
[10]
  IC50: > 20 µM (inactive)
[11]
  EC50: 7.63 µM (active)

## CCCCN1C(=O)NC(=O)/C(=C(/C)NNC(=O)Nc2ccccc2)C1=O
[2]
  EC50: > 120 µM (not active)
[3]
  EC50: > 120 µM (not active)
[4]
  EC50: 14.3 µM (active)

## COc1ccc(-c2ccc(C(C)=O)cc2)cc1[C@H]1[C@H]2C=CC[C@@H](C)[C@@H]2C(=O)N1Cc1ccccc1
[12]
  IC50: > 80 µM (inactive)
[13]
  EC50: 1.15 µM (active)
[14]
  EC50: 18.9 µM (active)

## CCOc1ccc(-c2cc(CCCC(=O)NCCCOC)no2)cc1
[5]
  EC50: > 50 µM (not active)
[12]
  IC50: > 80 µM (inactive)
[15]
  EC50: 0.841 µM (active)
[6]
  EC50: > 100 µM (not active)

## CO/C(O)=C1\CSC\C1=N\c1ccccc1NC(=O)c1ccccc1C(=O)O
[2]
  EC50: > 120 µM (not active)
[3]
  EC50: 119 µM (active)
[4]
  EC50: > 120 µM (not active)

## O=C(CCCO)N/N=C/c1cc(Br)ccc1O
[16]
  IC50: 21.7 µM (active)

## CCCCN(CC)CCNC(=O)c1cc2c(-c3ccccc3F)nn(C)c2s1
[2]
  EC50: 8.55 µM (active)
[3]
  EC50: > 120 µM (not active)
[4]
  EC50: > 120 µM (not active)
[17]
  AC50: > 20 µM (inactive)
